Laboratory results: US20110301170A1, “Inhibitors of JNK” (priority 2010, published 2011)
Structures can show the parent of a compound that is named as a salt.

Tested on: not given
Assay: not given
Conditions: not given

First: Cc1nnc2n1CCN(C(=O)[C@H]1CC[C@H](Nc3nccc(-n4ncc5c(C(F)(F)F)cccc54)n3)CC1)C2 [Compound 30, (3-Methyl-5,6-dihydro-8H-[1,2,4]triazolo[4,3-a]pyrazin-7-yl)-{4-[4-(4-trifluoromethyl-indazol-1-yl)-pyrimidin-2-ylamino]-cyclohexyl}-methanone]
Second: O=C([C@H]1CC[C@H](Nc2nccc(-n3ncc4c(C(F)(F)F)cccc43)n2)CC1)N1CCn2cnnc2C1 [Compound 29, (5,6-Dihydro-8H-[1,2,4]triazolo[4,3-a]pyrazin-7-yl)-{4-[4-(4-trifluoromethyl-indazol-1-yl)-pyrimidin-2-ylamino]-cyclohexyl}-methanone]
The melting point of the first is higher: 258 to 260 °C for the first, 223 to 227 °C for the second.

Compared with Cc1nnc2n1CCN(C(=O)[C@H]1CC[C@H](Nc3nccc(-n4ccc5c(OCCCS(C)(=O)=O)cccc54)n3)CC1)C2 (as salt: HCl) [Compound 23, (4-{4-[4-(3-Methanesulfonyl-propoxy)-indol-1-yl]-pyrimidin-2-ylamino}-cyclohexyl)-(3-methyl-5,6-dihydro-8H-[1,2,4]triazolo[4,3-a]pyrazin-7-yl)-methanone], C=C(C)c1cccc2c1ccn2-c1ccnc(N[C@H]2CC[C@H](C(=O)N3CCn4c(C)nnc4C3)CC2)n1 (as salt: HCl) [Compound 26, {4-[4-(4-Isopropenyl-indol-1-yl)-pyrimidin-2-ylamino]-cyclohexyl}-(3-methyl-5,6-dihydro-8H-[1,2,4]triazolo[4,3-a]pyrazin-7-yl)-methanone] is higher in melting point: 178 to 180 °C for the first, 216.6 to 221 °C for the second.

Compared with Cc1cccc2c1nnn2-c1ccnc(N[C@H]2CC[C@H](C(=O)N3CCn4cc(C(F)(F)F)nc4C3)CC2)n1 (as salt: HCl) [Compound 33, {4-[4-(4-Methyl-benzotriazol-1-yl)-pyrimidin-2-ylamino]-cyclohexyl}-(2-trifluoromethyl-5,6-dihydro-8H-imidazo[1,2-a]pyrazin-7-yl)-methanone], O=C([C@H]1CC[C@@H](Nc2nccc(-n3nnc4c(C(F)(F)F)cccc43)n2)CC1)N1CCn2cnnc2C1 (as salt: HCl) [Compound 37, (5,6-Dihydro-8H-[1,2,4]triazolo[4,3-a]pyrazin-7-yl)-{4-[4-(4-trifluoromethyl-benzotriazol-1-yl)-pyrimidin-2-ylamino]-cyclohexyl}-methanone] is lower in melting point: 258 to 260 °C for the first, 200 to 210 °C for the second.

First: Cc1cnc2n1CCN(C(=O)[C@H]1CC[C@H](Nc3nccc(-n4ccc5c(OC(F)F)cccc54)n3)CC1)C2 (as salt: HCl) [Compound 11, {4-[4-(4-Difluoromethoxy-indol-1-yl)-pyrimidin-2-ylamino]-cyclohexyl}-(3-methyl-5,6-dihydro-8H-imidazo[1,2-a]pyrazin-7-yl)-methanone]
Second: O=C([C@H]1CC[C@H](Nc2nccc(-n3ccc4c(OC(F)F)cccc43)n2)CC1)N1CCn2cnnc2C1 (as salt: HCl) [Compound 27, {4-[4-(4-Difluoromethoxy-indol-1-yl)-pyrimidin-2-ylamino]-cyclohexyl}-(5,6-dihydro-8H-[1,2,4]triazolo[4,3-a]pyrazin-7-yl)-methanone]
The melting point of the first is higher: 190 to 195 °C for the first, 175 to 178 °C for the second.

Compared with Cc1nnc2n1CCN(C(=O)[C@H]1CC[C@H](Nc3nccc(-n4nnc5c(OC(F)F)cccc54)n3)CC1)C2 (as salt: HCl) [Compound 45, {4-[4-(4-Difluoromethoxy-benzotriazol-1-yl)-pyrimidin-2-ylamino]-cyclohexyl}-(3-methyl-5,6-dihydro-8H-[1,2,4]triazolo[4,3-a]pyrazin-7-yl)-methanone], Cc1cccc2c1nnn2-c1ccnc(N[C@H]2CC[C@H](C(=O)N3CCn4c(C)nnc4C3)CC2)n1 (as salt: HCl) [Compound 35, {4-[4-(4-Methyl-benzotriazol-1-yl)-pyrimidin-2-ylamino]-cyclohexyl}-(3-methyl-5,6-dihydro-8H-[1,2,4]triazolo[4,3-a]pyrazin-7-yl)-methanone] is higher in melting point: 190 to 195 °C for the first, 246 to 248 °C for the second.

Compared with C=C(C)c1cccc2c1ccn2-c1ccnc(N[C@H]2CC[C@H](C(=O)N3CCn4c(C)cnc4C3)CC2)n1 (as salt: HCl) [Compound 10, {4-[4-(4-Isopropenyl-indol-1-yl)-pyrimidin-2-ylamino]-cyclohexyl}-(3-methyl-5,6-dihydro-8H-imidazo[1,2-a]pyrazin-7-yl)-methanone], O=C([C@H]1CC[C@H](Nc2nccc(-n3ccc4c(OCC5CCS(=O)(=O)C5)cccc43)n2)CC1)N1CCn2cnnc2C1 (stereo partly drawn) (as salt: HCl) [Compound 24, (5,6-Dihydro-8H-[1,2,4]triazolo[4,3-a]pyrazin-7-yl)-(4-{4-[4-(1,1-dioxo-tetrahydro-1λ6-thiophen-3-ylmethoxy)-indol-1-yl]-pyrimidin-2-ylamino}-cyclohexyl)-methanone] is lower in melting point: 220 to 224.9 °C for the first, 215 to 220 °C for the second.

For Cc1nnc2n1CCN(C(=O)[C@H]1CC[C@H](Nc3nccc(-n4nnc5c(C(C)(C)O)cccc54)n3)CC1)C2 (as salt: HCl) [Compound 39, (4-{4-[4-(1-Hydroxy-1-methyl-ethyl)-benzotriazol-1-yl]-pyrimidin-2-ylamino}-cyclohexyl)-(3-methyl-5,6-dihydro-8H-[1,2,4]triazolo[4,3-a]pyrazin-7-yl)-methanone], the melting point was 145 to 150 °C.

Tested on: T1, JNK
T1 construct: Human JNK2α2 assay contains 1 nM enzyme; Human JNK1α1 assay contains 2 nM enzyme
Assay: JNK Assay in vitro (phosphorylation of GST-ATF2 with [γ-33P] ATP)
Format: biochemical, Human
Conditions: IC50 affinity values; JNK isoform (JNK1α1, JNK2α2 or JNK3) not stated; Km concentrations of ATP and substrate; 30° C. for 30 min
Procedure: JNK activity was measured by phosphorylation of GST-ATF2 (19-96) with [-^33P] ATP. […] Human JNK2α2 assay contains 1 nM enzyme, 1 μM ATF2, 8 μM ATP with 1 uCi [γ-^33P] ATP. Human JNK1α1 assay contains 2 nM enzyme, 1 μM ATF2, 6 μM ATP with 1 μCi [γ-^33P] ATP. Human JNK3 (Upstate Biotech #14-501M) assay contains 2 nM enzyme, 1 μM ATF2, 4 μM ATP with 1 μCi [γ-^33P] ATP. The enzyme assay was carried out in the presence or absence of several compound concentrations. JNK and compound were pre-incubated for 10 min., followed by initiation of the enzymatic reaction by adding ATP and the substrate. The reaction mixture was incubated at 30° C. for 30 min. At the end of incubation, the reaction was terminated by transferring 25 μl of the reaction mixture to 150 μl of 10% glutathione Sepharose® slurry (Amersham #27-4574-01) containing 135 mM EDTA. The reaction product was captured on the affinity resin, and washed on a filtration plate (Millipore, MABVNOB50) with phosphate buffered saline for six times to remove free radionucleotide. The incorporation of ^33P into ATF2 was quantified on a microplate scintillation counter (Packard Topcount). Compound inhibition potency on JNK was measured by IC50 value generated from ten concentration inhibition curves fitted into the 3-parameter model: % inhibition=Maximum/(1+(IC50/[Inhibitor])^slope). Data were analyzed on Microsoft Excel for parameter estimation.

Cc1nnc2n1CCN(C(=O)[C@H]1CC[C@H](Nc3nccc(-n4ncc5c(C(F)(F)F)cccc54)n3)CC1)C2 [Compound 30, (3-Methyl-5,6-dihydro-8H-[1,2,4]triazolo[4,3-a]pyrazin-7-yl)-{4-[4-(4-trifluoromethyl-indazol-1-yl)-pyrimidin-2-ylamino]-cyclohexyl}-methanone] and O=C([C@H]1CC[C@H](Nc2nccc(-n3ncc4c(C(F)(F)F)cccc43)n2)CC1)N1CCn2cnnc2C1 [Compound 29, (5,6-Dihydro-8H-[1,2,4]triazolo[4,3-a]pyrazin-7-yl)-{4-[4-(4-trifluoromethyl-indazol-1-yl)-pyrimidin-2-ylamino]-cyclohexyl}-methanone] are within 1.5-fold of each other in IC50: 0.165 µM for the first, 0.135 µM for the second.
